Measured values taken from US20240109881A1, “Heteroaryl Compounds as Ligand Directed Degraders of IRAK4” (Bristol-Myers Squibb Company, priority 2022, published 2024).

Target: T1, IRAK4 (Homo sapiens, UniProt Q9NWZ3)
T1 construct: endogenous in cells; host or cells: THP-1 cells
T1 sequence (Q9NWZ3 1-460): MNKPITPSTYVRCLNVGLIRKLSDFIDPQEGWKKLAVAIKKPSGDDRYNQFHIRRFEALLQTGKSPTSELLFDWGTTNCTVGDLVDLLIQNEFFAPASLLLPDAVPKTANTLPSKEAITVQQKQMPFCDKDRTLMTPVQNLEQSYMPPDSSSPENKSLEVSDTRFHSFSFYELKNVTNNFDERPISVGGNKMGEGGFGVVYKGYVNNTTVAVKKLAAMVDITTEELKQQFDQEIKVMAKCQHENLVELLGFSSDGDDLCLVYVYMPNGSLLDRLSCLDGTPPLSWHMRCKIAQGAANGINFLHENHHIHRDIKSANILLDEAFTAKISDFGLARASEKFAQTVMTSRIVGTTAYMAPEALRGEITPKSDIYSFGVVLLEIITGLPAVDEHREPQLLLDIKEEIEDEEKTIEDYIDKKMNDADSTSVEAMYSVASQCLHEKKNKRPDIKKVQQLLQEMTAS
Test: LVL THP1 HTRF (THP1 Homogeneous Time Resolved Fluorescence)
Type: cell-based
Details: THP1 cells, 18 h incubation with compound; for DC50: read-out: LVL THP1 HTRF EC50
Experimental: Cell culture media was prepared in a tissue culture hood in a sterile environment by adding 10% FBS and 1% Penicillin Streptomycin to 500 mL no phenol red RPMI 1640 media. The media was filtered through a Nalgene Bottle Top Filter and stored at 4° C.
For Homogenous Time Resolved Fluorescence (HTRF) assays, a Cisbio HTRF kit was used, which included: Lysis Buffer #1 4×, Blocking Reagent #3 100×, 20× Antibody 1 (Anti-IRAK4 d2), 20× Antibody 2 (Anti-IRAK4 k), and Detection Buffer.
The THP1 plates were prepared by the following method. For each dosing plate, a duplicate for CTG assay was prepared. Two THP-1 T-175 flasks could be used to plate one 384 well plate. The cells were collected from two T-175 flasks into 200 mL centrifuge tubes and spun down at 1200 rpm for 10 min. The supernatant was removed completely and cells were resuspended in 7.5 mL cell culture media. To 5 μL of the cell suspension was added 25 μL of media and 30 μL of Trypan Blue stain. The cells were counted using countess (automated cell counter, Thermo Fisher Scientific) twice and the viability and live cell count was recorded. The actual cell count was […] the live cell count. Based on the count, a cell suspension was prepared in colorless RPMI media for a final concentration of 7.5e6 cells/mL. Using Standard cassette multidrop combi, 20 μL of the 7.5e6 cells/mL cell stock was added to entire 384 well plate but for top half of column 1 (negative control) The multidrop combi was always primed to achieve a steady flow and washed after use with 20 mL de-ionized water followed by 20 mL alcohol. The cells were incubated in 5% CO2 incubator at 37° C.
Dosing was conducted using the following method. To dose assay plates and CTG plate was added 20 nL of compounds in DMSO using Echo (Beckman Coulter), and the plates were incubated at 37° C. for 18 h. The compound plates were spun at 1200 rpm for 1 min before dosing. The compound plate was sealed and properly stored during incubation.
After dosing, an HTRF assay was conducted using the following method. The treatment plates (IRAK4_HTRF) were centrifuged at 600 g for 10 min. Using CyBio Felix, Automated liquid handler (Analytikjena), 13 μL cell culture media was removed. To all columns, 7.5 μL lysis buffer was added, and an additional 7.5 μL of lysis buffer was added to column 1(top half, negative control). The plate was incubated on a shaker at room temperature for 2 h. The plate was spun down at 600 g for 5 min. Custom 20×IRAK4 Antibody obtained from CISBIO Anti-IRAK4-d2 (acceptor Ab) and Anti-IRAK4-K (donor Ab) were diluted to 1× antibody mix Using a multichannel repeater, 4 μL of 1× antibody mix was added to each wellThe plate was spun down at 600 g for 5 min and incubated in the dark at room temperature for 18 h The next day (after 18 hrs), HTRF assay plate was spun down at 600 g for 5 min and read at 665/615 nm using a Envision plate reader.

Compound	LVL THP1 HTRF YMIN [%]	DC50 [µM]
C[C@H](C#N)Nc1cc(-n2ncc3cc(C#N)c(N)nc32)ncc1-n1cc([C@H]2CC[C@H](CCN3CCC(c4ccc([C@@]5(F)CCC(=O)NC5=O)cc4)CC3)CC2)nn1 (single isomer, unassigned) [P-318]	47.8	0.374
C[C@H](C#N)Nc1cc(Nc2ccc(C#N)cn2)ncc1-n1cc([C@H]2CC[C@H](CCN3CCN(c4ccc([C@@]5(C)CCC(=O)NC5=O)cc4)CC3)CC2)nn1 [P-298]	3.2	0.0827
C[C@H](C#N)Nc1cc(-n2ccc3cc(C#N)c(N)nc32)ncc1C(=O)N[C@H]1CC[C@H](CCN2CCN(c3ccc(C4CCC(=O)NC4=O)cc3)CC2)CC1 (stereo partly drawn) [P-200]	1.5	0.013
C[C@H](C#N)Nc1cc(-n2ncc3cc(C#N)cnc32)ncc1-n1cc([C@H]2CC[C@H](CCN3CCN(c4ncc(N5CCC(=O)NC5=O)s4)CC3)CC2)nn1 [P-372]	40.1	0.235
C[C@H](C#N)Nc1cc(Nc2ncncc2F)ncc1-n1cc([C@H]2CC[C@H](CCN3CCN(c4ccc(C5CCC(=O)NC5=O)cc4)CC3)CC2)nn1 (stereo partly drawn) [P-383]	5.6	0.0313
C[C@H](C#N)Nc1cc(-n2ncc3cc(C#N)cnc32)ncc1-n1cc(C2CCC(N3CCN(c4ccc(N5CCC(=O)NC5=O)cc4)CC3)CC2)nn1 (stereo partly drawn) [P-499, 1-(4-(((R)-1-cyanoethyl)amino)-5-(4-(4-(4-(4-(2,4-dioxotetrahydropyrimidin-1(2H)-yl)phenyl)piperazin-1-yl)cyclohexyl)-1H-1,2,3-triazol-1-yl)pyridin-2-yl)-1H-pyrazolo[3,4-b]pyridine-5-carbonitrile]	13.6	0.172
C[C@H](C#N)Nc1cc(-n2ncc3cc(C#N)cnc32)ncc1-n1cc([C@H]2CC[C@H](CCN3CC[C@H]4[C@@H]3CCN4c3ccc(N4CCC(=O)NC4=O)c(Cl)c3)CC2)nn1 (single isomer, unassigned) [P-478]	17.1	0.161
C[C@H](C#N)Nc1cc(-n2ncc3cc(C#N)cnc32)ncc1C(=O)N[C@H]1CC[C@H](CCN2CCN(c3ccc([C@@]4(C)CCC(=O)NC4=O)cn3)[C@@H](C)C2)CC1 (single isomer, unassigned) [P-276]	6.0	0.0114
C[C@H](C#N)Nc1cc(-n2ncc3cc(C#N)cnc32)ncc1-n1cc([C@H]2CC[C@H](CCN3CC[C@H]4[C@@H]3CCN4c3ccc([C@@]4(C)CCC(=O)NC4=O)nc3)CC2)nn1 (single isomer, unassigned) [P-286]	6.6	0.0085
N#Cc1cnc2c(cnn2-c2cc(OCC3CCOCC3)c(-n3cc([C@H]4CC[C@H](CCN5CCN(c6ccc(C7CCC(=O)NC7=O)cc6)CC5)CC4)nn3)cn2)c1 (stereo partly drawn) [P-411]	90.4	1
C[C@H](C#N)Nc1cc(-n2ncc3cc(C#N)cnc32)ncc1-n1cc([C@H]2CC[C@H](CCN3CCN(c4cccc5c(N6CCC(=O)NC6=O)nn(C)c45)CC3)CC2)nn1 [P-362]	14.9	0.238
C[C@H](C#N)Nc1cc(-n2ncc3cc(C#N)cnc32)ncc1-n1cc([C@H]2CC[C@H](CCN3CCN(Cc4ccc(N5CCC(=O)NC5=O)cc4)CC3)CC2)nn1 [P-422]	39.6	0.979
C[C@H](C#N)Nc1cc(-n2ncc3cc(C#N)cnc32)ncc1-n1cc(C2CCC(CCN3[C@@H](C)CN(c4ccc(C5CCC(=O)NC5=O)cc4)C[C@@H]3C)CC2)nn1 (stereo partly drawn) [P-201]	0.6	0.002
CC1CN(CC[C@H]2CC[C@H](c3cn(-c4cnc(-n5ncc6cc(C#N)cnc65)cc4N[C@H](C)C#N)nn3)CC2)CCC1c1ccc([C@@]2(F)CCC(=O)NC2=O)cc1 (single isomer, unassigned) [P-390]	−1.8	0.0028
CC[C@@H]1CN(CC[C@H]2CC[C@H](c3cn(-c4cnc(-n5ncc6cc(C#N)c(N)nc65)cc4N[C@H](C)C#N)nn3)CC2)CCN1c1ccc(N2CCC(=O)NC2=O)cc1 [P-447]	0.8	0.0006
C[C@H](C#N)Nc1cc(-n2ncc3cc(C#N)c(N)nc32)ncc1-n1cc(C2CCC(CCN3C[C@@H](C)N(c4ccc(C5CCC(=O)NC5=O)cc4)C[C@@H]3C)CC2)nn1 (stereo partly drawn) [P-207]	1.3	> 5
C[C@H](C#N)Nc1cc(-n2ncc3cc(C#N)cnc32)ncc1-n1cc([C@H]2CC[C@H](CCN3CCC(c4ccc(N5CCC(=O)NC5=O)c(Cl)c4)CC3)CC2)nn1 [P-342]	7.1	0.0221
C[C@H](C#N)Nc1cc(-n2ncc3cc(C#N)c(N)nc32)ncc1C(=O)N[C@H]1CC[C@H](CCN2CCN(c3ccc([C@@]4(C)CCC(=O)NC4=O)cn3)[C@@H](C)C2)CC1 (single isomer, unassigned) [P-249]	1.9	0.0023
C[C@H](C#N)Nc1cc(Nc2ncc(Cl)cc2Cl)ncc1-n1cc([C@H]2CC[C@H](CCN3CCN(c4ccc(C5CCC(=O)NC5=O)cc4)CC3)CC2)nn1 (stereo partly drawn) [P-380]	12.1	0.0894
C[C@H](C#N)Nc1cc(-n2ncc3cc(C#N)cnc32)ncc1-n1cc([C@H]2CC[C@H](CCN3C[C@@H](C)N(c4ccc(N5CCC(=O)NC5=O)cc4)C[C@H]3C)CC2)nn1 [P-496]	2.7	0.127
C[C@H](C#N)Nc1cc(-n2ncc3cncnc32)ncc1-n1cc(C2CCC(CCN3CCN(c4ccc([C@@]5(C)CCC(=O)NC5=O)cc4)CC3)CC2)nn1 (stereo partly drawn) [P-225]	3.5	
C[C@H](C#N)Nc1cc(-n2ncc3cc(C#N)cnc32)ncc1C(=O)N[C@H]1CC[C@H](CCN2CCN(c3ccc([C@@]4(C)CCC(=O)NC4=O)cc3)[C@@H](C)C2)CC1 [P-275]	2.9	0.0146
C[C@H](C#N)Nc1cc(-n2ncc3cc(C#N)cnc32)ncc1-n1cc([C@H]2CC[C@](O)(CCN3CCN(c4ccc([C@@]5(C)CCC(=O)NC5=O)cn4)CC3)CC2)nn1 (single isomer, unassigned) [P-426]	41.0	1
Cc1cc(C2CCC(=O)NC2=O)ccc1N1CCN(CC[C@H]2CC[C@H](NC(=O)c3cnc(-n4ncc5cc(C#N)c(N)nc54)cc3N[C@H](C)C#N)CC2)C[C@H]1C (stereo partly drawn) [P-170]	0.9	0.014
C[C@H](C#N)Nc1cc(-n2ncc3cc(C#N)cnc32)ncc1-n1cc([C@H]2CC[C@H](CCN3CC[C@H](c4ccc([C@@]5(F)CCC(=O)NC5=O)cc4)C[C@H]3C)CC2)nn1 (single isomer, unassigned) [P-326]	0.3	0.004
C[C@@H]1CN(CC[C@H]2CC[C@H](c3cn(-c4cnc(-n5ncc6cc(C#N)cnc65)cc4NC4(C#N)CC4)nn3)CC2)CCN1c1ccc([C@@]2(C)CCC(=O)NC2=O)cc1 [P-301]	17.8	0.103
